# From patent publication US11236129B2, “IL-17A binding peptides and medical uses thereof” (Dompe' Farmaceutici S.P.A., priority 2018, dated 2022)
# pIC50: −log10 of the molar value. Residues, ends and D or L forms follow the SMILES beside them.
# Biological target: IL-17RA/IL17RC dimerization induced by IL-17A (Homo sapiens, UniProt Q16552)
# Assay: IL-17RA/IL17RC dimerization assay in response to IL-17A (PathHunter Cytokine Receptor Assay)
# Assay type: cell-based
# Settings: not given
# How it was run: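 Receptor dimerization was read as chemiluminescence from complemented β-galactosidase after IL-17A at EC80 concentration for 6–16 h at 37 °C. Peptides were added 60 min before agonist, at 37 °C or room temperature, with 1% vehicle. Percent inhibition used the EC80-stimulated and vehicle wells as references.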
# IL-17RA/IL17RC dimerization induced by IL-17A, sequence (Q16552 24-155): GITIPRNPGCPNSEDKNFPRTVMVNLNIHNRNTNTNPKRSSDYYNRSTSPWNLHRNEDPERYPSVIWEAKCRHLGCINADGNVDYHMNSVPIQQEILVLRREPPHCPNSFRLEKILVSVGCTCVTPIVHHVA
row,Compound,pIC50
1,CC[C@H](C)[C@H](NC(C)=O)C(=O)N[C@@H](Cc1c[nH]cn1)C(=O)N[C@H](C(=O)N[C@H](C(=O)N[C@H](C(=O)N1CCC[C@H]1C(=O)N[C@@H](C)C(=O)N[C@@H](CC(=O)O)C(=O)N[C@H](C(=O)N[C@@H](Cc1c[nH]c2ccccc12)C(=O)N[C@@H](CC(=O)O)C(=O)N[C@@H](Cc1c[nH]c2ccccc12)C(=O)N[C@H](C(=O)N[C@@H](CC(N)=O)C(=O)N[C@@H](CCCCN)C(N)=O)[C@@H](C)CC)[C@@H](C)CC)[C@@H](C)CC)[C@@H](C)O)C(C)C [SEQ ID NO: 205] (Ac-IHVTIPADIWDWINK-NH2),> 5.00

# Same assay, conditions: IL-17A at EC80; read-out: IC50 in IL-17RA/IL7RC dimerization assay
row,pIC50,Compound
1,> 5.00,CC[C@H](C)[C@H](NC(C)=O)C(=O)N[C@@H](Cc1c[nH]cn1)C(=O)N[C@H](C(=O)N[C@H](C(=O)N[C@H](C(=O)N1CCC[C@H]1C(=O)N[C@@H](C)C(=O)N[C@@H](CC(=O)O)C(=O)N[C@@H](CC(C)C)C(=O)N[C@@H](Cc1c[nH]c2ccccc12)C(=O)N[C@@H](CC(=O)O)C(=O)N[C@@H](Cc1c[nH]c2ccccc12)C(=O)N[C@H](C(=O)N[C@@H](CC(N)=O)C(=O)N[C@@H](Cc1c[nH]cn1)C(N)=O)[C@@H](C)CC)[C@@H](C)CC)[C@@H](C)O)C(C)C [SEQ ID NO: 222] (Ac-IHVTIPADLWDWINH-NH2)
2,> 5.00,CC[C@H](C)[C@H](NC(C)=O)C(=O)N[C@@H](CCC(N)=O)C(=O)N[C@H](C(=O)N[C@H](C(=O)N[C@H](C(=O)N1CCC[C@H]1C(=O)N[C@@H](C)C(=O)N[C@@H](CC(=O)O)C(=O)N[C@@H](CC(C)C)C(=O)N[C@@H](Cc1c[nH]c2ccccc12)C(=O)N[C@@H](CC(=O)O)C(=O)N[C@@H](Cc1c[nH]c2ccccc12)C(=O)N[C@H](C(=O)N[C@@H](CC(N)=O)C(=O)N[C@@H](CCCCN)C(N)=O)[C@@H](C)CC)[C@@H](C)CC)[C@@H](C)O)C(C)C [SEQ ID NO: 165] (Ac-IQVTIPADLWDWINK-NH2)
3,> 5.00,CC[C@H](C)[C@H](NC(=O)[C@H](CCC(=O)O)NC(=O)[C@H](CC(C)C)NC(=O)[C@@H]1CCCN1C(=O)[C@@H](NC(=O)[C@H](CO)NC(=O)[C@@H](NC(=O)[C@H](CCCCN)NC(=O)[C@@H](NC(C)=O)C(C)C)[C@@H](C)CC)C(C)C)C(=O)N[C@@H](Cc1ccccc1)C(=O)N[C@@H](CCC(=O)O)C(=O)N[C@@H](Cc1c[nH]c2ccccc12)C(=O)N[C@@H](CC(C)C)C(=O)N[C@@H](CCC(N)=O)C(=O)N[C@@H](Cc1c[nH]cn1)C(N)=O [SEQ ID NO: 254] (Ac-VKISVPLEIFEWLQH-NH2)
4,> 5.00,CC(=O)N[C@H](C(=O)N[C@@H](Cc1c[nH]cn1)C(=O)N[C@H](C(=O)N[C@H](C(=O)N[C@H](C(=O)N1CCC[C@H]1C(=O)N[C@@H](CCC(N)=O)C(=O)N[C@@H](CCC(=O)O)C(=O)N[C@@H](CC(C)C)C(=O)N[C@@H](Cc1ccc(O)cc1)C(=O)N[C@@H](CCC(=O)O)C(=O)N[C@@H](Cc1c[nH]c2ccccc12)C(=O)N[C@H](C(=O)N[C@@H](CCCNC(=N)N)C(=O)N[C@@H](CCCNC(=N)N)C(N)=O)C(C)C)C(C)C)[C@@H](C)O)C(C)C)C(C)C [SEQ ID NO: 226] (Ac-VHVTVPQELYEWVRR-NH2)
5,> 5.00,CC[C@H](C)[C@H](NC(C)=O)C(=O)N[C@@H](Cc1c[nH]cn1)C(=O)N[C@H](C(=O)N[C@H](C(=O)N[C@@H](Cc1ccccc1)C(=O)N1CCC[C@H]1C(=O)N[C@@H](C)C(=O)N[C@@H](CC(=O)O)C(=O)N[C@@H](CC(C)C)C(=O)N[C@@H](Cc1c[nH]c2ccccc12)C(=O)N[C@@H](CC(=O)O)C(=O)N[C@@H](Cc1c[nH]c2ccccc12)C(=O)N[C@H](C(=O)N[C@@H](CC(N)=O)C(=O)N[C@@H](CCCCN)C(N)=O)[C@@H](C)CC)[C@@H](C)O)C(C)C [SEQ ID NO: 184] (Ac-IHVTFPADLWDWINK-NH2)
6,> 5.00,CC[C@H](C)[C@H](NC(=O)[C@H](Cc1c[nH]c2ccccc12)NC(=O)[C@H](CC(=O)O)NC(=O)[C@H](Cc1c[nH]c2ccccc12)NC(=O)[C@H](CC(C)C)NC(=O)[C@H](CC(=O)O)NC(=O)[C@H](C)NC(=O)[C@@H]1CCCN1C(=O)[C@@H](NC(=O)[C@H](Cc1ccc(O)cc1)NC(=O)[C@H](C)NC(=O)[C@H](CCCNC(=N)N)NC(=O)[C@@H](NC(C)=O)C(C)C)C(C)C)C(=O)N[C@@H](CC(N)=O)C(=O)N[C@@H](CCCCN)C(N)=O [SEQ ID NO: 243] (Ac-VRAYVPADLWDWINK-NH2)
7,> 6.30,CC[C@H](C)[C@H](NC(=O)[C@@H](NC(=O)[C@@H](NC(=O)[C@H](Cc1c[nH]cn1)NC(=O)[C@@H](NC(C)=O)C(C)C)C(C)C)[C@@H](C)O)C(=O)N1CCC[C@H]1C(=O)N[C@@H](C)C(=O)N[C@@H](CC(=O)O)C(=O)N[C@@H](CC(C)C)C(=O)N[C@@H](Cc1ccc(O)cc1)C(=O)N[C@@H](CC(N)=O)C(=O)N[C@@H](Cc1ccccc1)C(=O)N[C@@H](Cc1ccccc1)C(=O)N[C@@H](CCCNC(=N)N)C(=O)N[C@@H](CCCNC(=N)N)C(N)=O [SEQ ID NO: 149] (Ac-VHVTIPADLYNFFRR-NH2)
8,> 5.00,CC[C@H](C)[C@H](NC(C)=O)C(=O)N[C@@H](Cc1c[nH]cn1)C(=O)N[C@H](C(=O)N[C@H](C(=O)N[C@H](C(=O)N1CCC[C@H]1C(=O)N1CCC[C@H]1C(=O)N[C@@H](CC(=O)O)C(=O)N[C@@H](CC(C)C)C(=O)N[C@@H](Cc1c[nH]c2ccccc12)C(=O)N[C@@H](CC(=O)O)C(=O)N[C@@H](Cc1c[nH]c2ccccc12)C(=O)N[C@H](C(=O)N[C@@H](CC(N)=O)C(=O)N[C@@H](CCCCN)C(N)=O)[C@@H](C)CC)[C@@H](C)CC)[C@@H](C)O)C(C)C [SEQ ID NO: 194] (Ac-IHVTIPPDLWDWINK-NH2)
9,> 5.00,CC[C@H](C)[C@H](NC(=O)[C@H](Cc1c[nH]c2ccccc12)NC(=O)[C@H](CC(=O)O)NC(=O)[C@H](Cc1c[nH]c2ccccc12)NC(=O)[C@H](CC(C)C)NC(=O)[C@H](CC(=O)O)NC(=O)[C@H](C)NC(=O)[C@@H]1CCCN1C(=O)[C@@H](NC(=O)[C@H](Cc1ccc(O)cc1)NC(=O)[C@@H](NC(=O)[C@H](CCCNC(=N)N)NC(=O)[C@H](CC(C)C)NC(C)=O)[C@@H](C)CC)C(C)C)C(=O)N[C@@H](CC(N)=O)C(=O)N[C@@H](CCCCN)C(N)=O [SEQ ID NO: 241] (Ac-LRIYVPADLWDWINK-NH2)
10,> 6.30,CC(=O)N[C@H](C(=O)N[C@@H](Cc1c[nH]cn1)C(=O)N[C@@H](Cc1ccccc1)C(=O)N[C@H](C(=O)N[C@@H](Cc1ccccc1)C(=O)N1CCC[C@H]1C(=O)N[C@@H](CCC(N)=O)C(=O)N[C@@H](CC(=O)O)C(=O)N[C@@H](Cc1ccccc1)C(=O)N[C@@H](Cc1c[nH]c2ccccc12)C(=O)N[C@@H](CCC(=O)O)C(=O)N[C@@H](Cc1c[nH]c2ccccc12)C(=O)N[C@H](C(=O)N[C@@H](CCCNC(=N)N)C(=O)N[C@@H](CCCNC(=N)N)C(N)=O)C(C)C)[C@@H](C)O)C(C)C [SEQ ID NO: 125] (Ac-VHFTFPQDFWEWVRR-NH2)
11,> 6.30,CC[C@H](C)[C@H](NC(=O)[C@@H](NC(=O)[C@@H](NC(=O)[C@H](Cc1c[nH]cn1)NC(=O)[C@@H](NC(C)=O)C(C)C)C(C)C)[C@@H](C)O)C(=O)N1CCC[C@H]1C(=O)N[C@@H](C)C(=O)N[C@@H](CC(=O)O)C(=O)N[C@@H](CC(C)C)C(=O)N[C@@H](Cc1ccc(O)cc1)C(=O)N[C@@H](CCC(=O)O)C(=O)N[C@@H](Cc1c[nH]c2ccccc12)C(=O)N[C@H](C(=O)N[C@@H](CCCNC(=N)N)C(=O)N[C@@H](CCCNC(=N)N)C(N)=O)C(C)C [SEQ ID NO: 118] (Ac-VHVTIPADLYEWVRR-NH2)
12,> 5.00,CC[C@H](C)[C@H](NC(C)=O)C(=O)N[C@@H](Cc1c[nH]cn1)C(=O)N[C@H](C(=O)N[C@H](C(=O)N[C@H](C(=O)N[C@@H](CC(C)C)C(=O)N[C@@H](C)C(=O)N[C@@H](CC(=O)O)C(=O)N[C@@H](CC(C)C)C(=O)N[C@@H](Cc1c[nH]c2ccccc12)C(=O)N[C@@H](CC(=O)O)C(=O)N[C@@H](Cc1c[nH]c2ccccc12)C(=O)N[C@H](C(=O)N[C@@H](CC(N)=O)C(=O)N[C@@H](CCCCN)C(N)=O)[C@@H](C)CC)[C@@H](C)CC)[C@@H](C)O)C(C)C [SEQ ID NO: 188] (Ac-IHVTILADLWDWINK-NH2)
13,> 6.30,CC(=O)N[C@H](C(=O)N[C@@H](Cc1c[nH]cn1)C(=O)N[C@@H](Cc1ccccc1)C(=O)N[C@@H](CCC(N)=O)C(=O)N[C@@H](Cc1ccccc1)C(=O)N1CCC[C@H]1C(=O)N[C@@H](CCC(N)=O)C(=O)N[C@@H](CC(=O)O)C(=O)N[C@@H](Cc1c[nH]c2ccccc12)C(=O)N[C@@H](Cc1c[nH]c2ccccc12)C(=O)N[C@@H](CCC(=O)O)C(=O)N[C@@H](Cc1c[nH]c2ccccc12)C(=O)N[C@@H](Cc1ccccc1)C(=O)N[C@@H](CCCNC(=N)N)C(=O)N[C@@H](CCCNC(=N)N)C(N)=O)C(C)C [SEQ ID NO: 141] (Ac-VHFQFPQDWWEWFRR-NH2)
14,> 6.30,CC(=O)N[C@H](C(=O)N[C@@H](Cc1c[nH]cn1)C(=O)N[C@@H](Cc1ccccc1)C(=O)N[C@@H](CCC(N)=O)C(=O)N[C@@H](Cc1ccccc1)C(=O)N1CCC[C@H]1C(=O)N[C@@H](CCC(N)=O)C(=O)N[C@@H](CC(=O)O)C(=O)N[C@@H](CC(C)C)C(=O)N[C@@H](Cc1c[nH]c2ccccc12)C(=O)N[C@@H](CCC(=O)O)C(=O)N[C@@H](Cc1ccccc1)C(=O)N[C@H](C(=O)N[C@@H](CCCNC(=N)N)C(=O)N[C@@H](CCCNC(=N)N)C(N)=O)C(C)C)C(C)C [SEQ ID NO: 140] (Ac-VHFQFPQDLWEFVRR-NH2)
15,> 5.00,CC[C@H](C)[C@H](NC(C)=O)C(=O)N[C@@H](Cc1c[nH]cn1)C(=O)NCC(=O)N[C@H](C(=O)N[C@H](C(=O)N1CCC[C@H]1C(=O)N[C@@H](C)C(=O)N[C@@H](CC(=O)O)C(=O)N[C@@H](CC(C)C)C(=O)N[C@@H](Cc1c[nH]c2ccccc12)C(=O)N[C@@H](CC(=O)O)C(=O)N[C@@H](Cc1c[nH]c2ccccc12)C(=O)N[C@H](C(=O)N[C@@H](CC(N)=O)C(=O)N[C@@H](CCCCN)C(N)=O)[C@@H](C)CC)[C@@H](C)CC)[C@@H](C)O [SEQ ID NO: 168] (Ac-IHGTIPADLWDWINK-NH2)
